# Structures can show the parent of a compound that is named as a salt.
# What was measured:
# mice [1] = assay: antagonism of nociceptin-induced stimulation of horizontal locomotor activity; format: in vivo
# mice [2] = conditions: mouse, in vivo
structure (smiles),measurement,setting,value
"C=CCN1CC[C@]23c4c5ccc(O)c4O[C@H]2C(=O)CC[C@@]3(O)[C@H]1C5 [Naloxone, Naloxone hydrochloride]",effect on motor-stimulant effect of nociceptin,"mice [1]; 0.0-4.5 mg/kg s.c., 10 minutes before i.c.v. 100 ng nociceptin, first 10 minutes of testing",did not suppress
O=C(CCCN1CCC(O)(c2ccc(Cl)cc2)CC1)c1ccc(F)cc1 [haloperidol],effect on nociceptin-induced stimulation of locomotor activity,mice [1]; increasing doses of D2 dopamine receptor antagonist pretreatment,antagonized
CN1CC[C@]23c4c5ccc(O)c4O[C@H]2[C@@H](O)C=C[C@H]3[C@H]1C5 [morphin],number of explored holes,mice [2],24 ± 2
